Experimental data as given in patent publication US5859207A (priority 1996, dated 1999).

How the values were obtained:
human monocytes = type: binding
[1] = test system: Human peripheral blood mononuclear cells (PBMC)
[2] = test system: Human peripheral blood mononuclear cells (PBMC); type: cell-based

Row | Substance | inhibition of biotinylated SEA(121-149) binding to monocytes (human monocytes) | concentration at which native SEA is effective (TNFα induction) [1] [nM] | cytotoxic activity neutralized by anti-TNFα antibody [1] [%] | IL-1 activity [2] [units/ml] | TNFα production [1] [units/ml] | TNFα production by monocytes depleted of T cells [1] | induction of TNFα production (in words) [1]
1 | staphylococcal enterotoxin A [SEA] | specifically inhibited | 0.1 to 1 | 63 | 875±5 | – | – | –
2 | toxic shock syndrome toxin one [TSST-1] | – | – | 76 | – | 99 | approximately 25 units TNFα/ml | induced significant TNFα production
